test system: A/Udorn/72 (H3N2) virus; experiment: Plaque assay in MDCK cells: EC50 by reduction of plaque number; assay type: cell-based, influenza virus; details: MDCK

Row | SMILES | EC50
1 | COc1cc(-c2ccc(/C=C3\SC(=S)N(C4C5CC6CC(C5)CC4C6)C3=O)o2)cc(OC)c1OC (stereo not drawn) [Compound 1] | < 100 nM
2 | COc1cc(-c2ccc(/C=C3\SC(=S)N(C4CC5CCC4C5)C3=O)o2)cc(OC)c1OC (stereo not drawn) [Compound 2] | < 100 nM
3 | O=C(O)c1ccc(-c2ccc(/C=C3\SC(=S)N(C4C5CC6CC(C5)CC4C6)C3=O)o2)cc1 (stereo not drawn) [Compound 3] | < 100 nM
4 | O=C(O)c1ccc(-c2ccc(/C=C3\SC(=S)N(C4CC5CCC4C5)C3=O)o2)cc1 (stereo not drawn) [Compound 4] | < 100 nM
5 | O=C1/C(=C/c2ccc(-c3cc(O)cc(O)c3)o2)SC(=S)N1C1C2CC3CC(C2)CC1C3 (stereo not drawn) [Compound 5] | < 100 nM
6 | COc1cc(-c2ccc(/C=C3\SC(=S)N(C4C5CC6CC(C5)CC4C6)C3=O)o2)cc(OC)c1O (stereo not drawn) [Compound 7] | < 100 nM
7 | COc1ccc(-c2ccc(/C=C3\SC(=S)N(C4CC5CCC4C5)C3=O)o2)cc1 (stereo not drawn) [Compound 8] | < 100 nM
8 | COc1ccc(-c2ccc(/C=C3\SC(=S)N(C4C5CC6CC(C5)CC4C6)C3=O)o2)cc1 (stereo not drawn) [Compound 9] | < 100 nM
9 | COc1ccc(-c2ccc(/C=C3\SC(=S)N(C4CC5CCC4C5)C3=O)o2)cc1O (stereo not drawn) [Compound 10] | < 100 nM
10 | Nc1ccc(-c2ccc(/C=C3\SC(=S)N(C4CC5CCC4C5)C3=O)o2)cc1 (stereo not drawn) [Compound 11] | < 100 nM
11 | Nc1ccc(-c2ccc(/C=C3\SC(=S)N(C4C5CC6CC(C5)CC4C6)C3=O)o2)cc1 (stereo not drawn) [Compound 12] | < 100 nM
12 | COC(=O)c1cc(-c2ccc(/C=C3\SC(=S)N(C4C5CC6CC(C5)CC4C6)C3=O)o2)ccc1OC (stereo not drawn) [Compound 13] | < 100 nM
13 | COC(=O)c1cc(-c2ccc(/C=C3\SC(=S)N(C4CC5CCC4C5)C3=O)o2)ccc1OC (stereo not drawn) [Compound 14] | < 100 nM
14 | O=C1/C(=C/c2ccc(-c3ccc(O)cc3)o2)SC(=S)N1C1C2CC3CC(C2)CC1C3 (stereo not drawn) [Compound 15] | < 100 nM
15 | COc1cc(O)cc(-c2ccc(/C=C3\SC(=S)N(C4C5CC6CC(C5)CC4C6)C3=O)o2)c1 (stereo not drawn) [Compound 18] | < 100 nM
16 | COc1cc(-c2ccc(/C=C3\SC(=S)N(C4CC5CCC4C5)C3=O)o2)ccc1O (stereo not drawn) [Compound 24] | < 100 nM
17 | COCOc1cc(-c2ccc(/C=C3\SC(=S)N(C4C5CC6CC(C5)CC4C6)C3=O)o2)cc(OC)c1OC (stereo not drawn) [Compound 25] | < 100 nM
18 | COCOc1cc(-c2ccc(/C=C3\SC(=S)N(C4CC5CCC4C5)C3=O)o2)cc(OC)c1OCOC (stereo not drawn) [Compound 26] | < 100 nM
19 | COCOc1cc(-c2ccc(/C=C3\SC(=S)N(C4CC5CCC4C5)C3=O)o2)cc(OC)c1OC (stereo not drawn) [Compound 27] | < 100 nM
20 | COc1ccc(-c2ccc(/C=C3\SC(=S)N(C4C5CC6CC(C5)CC4C6)C3=O)o2)cc1C(=O)O (stereo not drawn) [Compound 34] | < 100 nM
21 | COc1ccc(-c2ccc(/C=C3\SC(=S)N(C4CC5CCC4C5)C3=O)o2)cc1OCC(=O)O (stereo not drawn) [Compound 35] | < 100 nM
22 | COc1ccc(-c2ccc(/C=C3\SC(=S)N(C4CC5CCC4C5)C3=O)o2)cc1C(=O)O (stereo not drawn) [Compound 36] | < 100 nM
23 | COc1cc(OCC(=O)O)cc(-c2ccc(/C=C3\SC(=S)N(C4C5CC6CC(C5)CC4C6)C3=O)o2)c1 (stereo not drawn) [Compound 38] | < 100 nM
24 | COc1cc(OCC(=O)OC(C)(C)C)cc(-c2ccc(/C=C3\SC(=S)N(C4CC5CCC4C5)C3=O)o2)c1 (stereo not drawn) [Compound 39] | < 100 nM

Row | SMILES | EC50
25 | O=C1/C(=C/c2ccc(-c3ccc(Cl)cc3)o2)SC(=S)N1C1C2CC3CC(C2)CC1C3 (stereo not drawn) [Compound 43] | < 100 nM
26 | CCOC(=O)c1c(F)ccc(-c2ccc(/C=C3\SC(=S)N(C4CCCC4)C3=O)o2)c1F [Compound 45] | < 100 nM
27 | CCOC(=O)c1c(F)ccc(-c2ccc(/C=C3\SC(=S)N(C4CCCCCCC4)C3=O)o2)c1F [Compound 46] | < 100 nM
28 | O=C1/C(=C/c2ccc(-c3ccc(Cl)cc3)o2)SC(=S)N1C1CCCCC1 [Compound 47] | < 100 nM
29 | O=C1/C(=C/c2ccc(-c3ccc(Cl)cc3)o2)SC(=S)N1C1CCCC1 [Compound 48] | < 100 nM
30 | COc1cc(C)c(-c2ccc(/C=C3\SC(=S)N(C4CCCCCCC4)C3=O)o2)cc1C [Compound 49] | < 100 nM
31 | CCOc1ccc(F)c(F)c1-c1ccc(/C=C2\SC(=S)N(C3CCCC3)C2=O)o1 [Compound 50] | < 100 nM
32 | COc1cc(C)c(-c2ccc(/C=C3\SC(=S)N(C4CCCC4)C3=O)o2)cc1C [Compound 51] | < 100 nM
33 | COc1ccc(-c2ccc(/C=C3\SC(=S)N(C4CCCCC4)C3=O)o2)c(F)c1F [Compound 52] | < 100 nM
34 | COc1cc(OC)cc(-c2ccc(/C=C3\SC(=S)N(C4CC5CCC4C5)C3=O)[nH]2)c1 (stereo not drawn) [Compound 58] | < 100 nM
35 | COc1cc(OC)cc(-c2ccc(/C=C3\SC(=S)N(C4C5CC6CC(C5)CC4C6)C3=O)[nH]2)c1 (stereo not drawn) [Compound 59] | < 100 nM
36 | O=C1/C(=C/c2cn(-c3ccc([N+](=O)[O-])cc3)cn2)SC(=S)N1C1CCCCCCC1 [Compound 62] | 250 to 1000 nM
37 | O=C1/C(=C/c2cn(-c3ccc([N+](=O)[O-])cc3)cn2)SC(=S)N1C1CCCCCC1 [Compound 63] | 250 to 1000 nM
38 | O=C1/C(=C/c2cn(-c3ccc([N+](=O)[O-])cc3)cn2)SC(=S)N1C1CCCCCCCCCCC1 [Compound 64] | < 100 nM
39 | O=C1/C(=C/c2ncc(-c3ccccc3)o2)SC(=S)N1C1CCCCCC1 [Compound 65] | < 100 nM
40 | O=C1/C(=C/c2ncc(-c3ccccc3)o2)SC(=S)N1C1CCCCCCC1 [Compound 66] | < 100 nM
41 | COc1ccc2oc(=O)c(-c3ccc(/C=C4\SC(=S)N(C5CC6CCC5C6)C4=O)o3)c(O)c2c1 (stereo not drawn) [Compound 69] | 100 to 250 nM
42 | COc1ccc2oc(=O)c(-c3ccc(/C=C4\SC(=S)N(C5C6CC7CC(C6)CC5C7)C4=O)o3)c(O)c2c1 (stereo not drawn) [Compound 70] | 100 to 250 nM
43 | COc1ccc2c(O)c(-c3ccc(/C=C4\SC(=S)N(C5CC6CCC5C6)C4=O)o3)c(=O)oc2c1OC (stereo not drawn) [Compound 71] | 100 to 250 nM
44 | COc1ccc2c(O)c(-c3ccc(/C=C4\SC(=S)N(C5C6CC7CC(C6)CC5C7)C4=O)o3)c(=O)oc2c1OC (stereo not drawn) [Compound 72] | 100 to 250 nM
45 | COc1ccc2c(O)c(-c3ccc(/C=C4\SC(=S)N(C5CC6CCC5C6)C4=O)o3)c(=O)oc2c1 (stereo not drawn) [Compound 73] | 100 to 250 nM
46 | COc1ccc2c(O)c(-c3ccc(/C=C4\SC(=S)N(C5C6CC7CC(C6)CC5C7)C4=O)o3)c(=O)oc2c1 (stereo not drawn) [Compound 74] | 100 to 250 nM
47 | COCOc1cc(=O)oc2ccc(-c3ccc(/C=C4\SC(=S)N(C5C6CC7CC(C6)CC5C7)C4=O)o3)cc12 (stereo not drawn) [Compound 75] | 250 to 1000 nM
48 | COCOc1cc(=O)oc2ccc(-c3ccc(/C=C4\SC(=S)N(C5CC6CCC5C6)C4=O)o3)cc12 (stereo not drawn) [Compound 76] | 250 to 1000 nM

Row | SMILES | EC50
49 | COc1ccc(-c2ccc(/C=C3\SC(=S)N(C4CC5CCC4C5)C3=O)o2)cc1OCC(=O)N[C@@H](Cc1ccc(O)cc1)C(=O)O (stereo partly drawn) [Compound 77] | 100 to 250 nM
50 | COc1ccc(-c2ccc(/C=C3\SC(=S)N(C4CC5CCC4C5)C3=O)o2)cc1OCC(=O)N[C@@H](CC(C)C)C(=O)O (stereo partly drawn) [Compound 78] | < 100 nM
51 | COc1ccc(-c2ccc(/C=C3\SC(=S)N(C4CC5CCC4C5)C3=O)o2)cc1OCC(=O)N[C@@H](Cc1ccccc1)C(=O)O (stereo partly drawn) [Compound 79] | < 100 nM
52 | COc1ccc(-c2ccc(/C=C3\SC(=S)N(C4CC5CCC4C5)C3=O)o2)cc1OCC(=O)N1CCC[C@H]1C(=O)O (stereo partly drawn) [Compound 80] | < 100 nM
53 | COc1ccc(-c2ccc(/C=C3\SC(=S)N(C4CC5CCC4C5)C3=O)o2)cc1OCC(=O)N[C@@H](CCC(=O)OCc1ccccc1)C(=O)O (stereo partly drawn) [Compound 81] | < 100 nM
54 | COc1ccc(-c2ccc(/C=C3\SC(=S)N(C4CC5CCC4C5)C3=O)o2)cc1OCC(=O)N[C@@H](Cc1cnc[nH]1)C(=O)O (stereo partly drawn) [Compound 82] | < 100 nM
55 | COc1ccc(-c2ccc(/C=C3\SC(=S)N(C4CC5CCC4C5)C3=O)o2)cc1C(=O)N[C@@H](Cc1ccccc1)C(=O)O (stereo partly drawn) [Compound 85] | < 100 nM
56 | COc1ccc(-c2ccc(/C=C3\SC(=S)N(C4CC5CCC4C5)C3=O)o2)cc1C(=O)N[C@@H](CC(C)C)C(=O)O (stereo partly drawn) [Compound 87] | < 100 nM
57 | COc1ccc(-c2ccc(/C=C3\SC(=S)N(C4CC5CCC4C5)C3=O)o2)cc1C(=O)N[C@@H](Cc1cnc[nH]1)C(=O)O (stereo partly drawn) [Compound 88] | < 100 nM
58 | COc1ccc(-c2ccc(/C=C3\SC(=S)N(C4CC5CCC4C5)C3=O)o2)cc1C(=O)N1CCC[C@H]1C(=O)O (stereo partly drawn) [Compound 89] | < 100 nM
59 | COC(=O)C[C@H](NC(=O)c1cc(-c2ccc(/C=C3\SC(=S)N(C4CC5CCC4C5)C3=O)o2)ccc1OC)C(=O)O (stereo partly drawn) [Compound 90] | 100 to 250 nM
60 | CCOC(=O)[C@@H]1CCCCN1C(=O)c1cc(-c2ccc(/C=C3\SC(=S)N(C4CC5CCC4C5)C3=O)o2)ccc1OC (stereo partly drawn) [Compound 91] | < 100 nM
61 | O=C1/C(=C/c2oc(-c3ccccc3)cc2CO)SC(=S)N1C1CC2CCC1C2 (stereo not drawn) [Compound 93] | < 100 nM
62 | COc1cc(OC)cc(-c2cc(CCCO)c(/C=C3\SC(=S)N(C4CC5CCC4C5)C3=O)o2)c1 (stereo not drawn) [Compound 96] | < 100 nM
63 | COc1cc(OC)cc(-c2cc(CCCOC(C)=O)c(/C=C3\SC(=S)N(C4CC5CCC4C5)C3=O)o2)c1 (stereo not drawn) [Compound 97] | < 100 nM
64 | COc1cc(OC)cc(-c2cc(CCCOC(C)=O)c(/C=C3\SC(=S)N(C4C5CC6CC(C5)CC4C6)C3=O)o2)c1 (stereo not drawn) [Compound 98] | < 100 nM
65 | O=C1/C(=C/c2oc(-c3ccc(Cl)cc3)cc2CCCO)SC(=S)N1C1C2CC3CC(C2)CC1C3 (stereo not drawn) [Compound 100] | < 100 nM
66 | O=C1/C(=C/c2oc(-c3ccc(F)cc3)cc2CCCCCO)SC(=S)N1C1CC2CCC1C2 (stereo not drawn) [Compound 105] | < 100 nM
67 | O=C1/C(=C/c2oc(-c3ccc(F)cc3)cc2CCCCCO)SC(=S)N1C1C2CC3CC(C2)CC1C3 (stereo not drawn) [Compound 106] | < 100 nM
68 | O=C1/C(=C/c2oc(-c3ccc(F)cc3)cc2CCCCCCO)SC(=S)N1C1CC2CCC1C2 (stereo not drawn) [Compound 107] | < 100 nM
69 | O=C1/C(=C/c2oc(-c3ccc(F)cc3)cc2CCCCCCO)SC(=S)N1C1C2CC3CC(C2)CC1C3 (stereo not drawn) [Compound 108] | < 100 nM
70 | COc1cc(OC)cc(-c2cc(CCCCCO)c(/C=C3\SC(=S)N(C4CC5CCC4C5)C3=O)o2)c1 (stereo not drawn) [Compound 109] | < 100 nM
71 | COc1cc(OC)cc(-c2cc(CCCCCO)c(/C=C3\SC(=S)N(C4C5CC6CC(C5)CC4C6)C3=O)o2)c1 (stereo not drawn) [Compound 110] | < 100 nM
72 | COc1cc(OC)cc(-c2cc(CCCCCCO)c(/C=C3\SC(=S)N(C4CC5CCC4C5)C3=O)o2)c1 (stereo not drawn) [Compound 111] | < 100 nM

From patent US8933075B2, “Compounds useful as antiviral agents, compositions, and methods of use” (priority 2010, dated 2015)
